Experimental data published in US12527270B2, “Promoting regeneration and transformation in plants” (KWS SAAT SE & CO. KGAA, priority 2020, dated 2026).

Tested on: Beta vulgaris calli
Assay: DEX-inducible 35S-BnBBM-GR: shoot formation and callus-based transformation efficiency
Assay type: cell-based, Beta vulgaris (sugar beet)
Details: BnBBM-GR with DEX-induction
Procedure: By applying the following method callus for Beta vulgaris (sugar beet) has been induced: Micropropagated shoots were used as starting material. Shoots were multiplied in medium containing MS salts, 30 g/l sucrose, 0.25 mg/l benzyladenine (BAP) and 10 g/l agar (pH 6.0). To induce friable callus, leaf explants were incubated for 7-8 weeks in media having MS salts, 15 g/l sucrose, 2 mg/l BAP, and 8 g/l agar (pH 6.0).
For Agrobacterium-mediated transformation friable calli were mounted in media containing MS salts, 30 g/l sucrose, 1 mg/l GA3, 1 mg/l TDZ, and 10 g/l agar (pH 6.0) and kept for 1 week in the dark at 24° C. Agrobacterium harbouring the vector of IPR232-pS-01 (FIG. 12) was grown in medium containing 5 g/l tryptone, 2.5 g/l yeast extract, 1 g/l NaCl, 5 g/l mannitol, 0.1 g/l MgSO4×7H2O, 0.25 g/l KH2PO4, 1 g/l glutamic acid (pH 7.0) supplemented with the appropriate antibiotics, at 28° C., for 24 h. […]
For quantification of transformation rate a) the inducible BnBBM system based on DEX/GR as described above as well as a constitutive overexpression of BnBBM have been tested on an amenable genotype and a recalcitrant genotype. […]

**Q.** Which transformation efficiency (amenable genotype) does the source give for `C[C@@H]1C[C@H]2[C@@H]3CCC4=CC(=O)C=C[C@]4(C)[C@@]3(F)[C@@H](O)C[C@]2(C)[C@@]1(O)C(=O)CO` [DEX, dexamethasone] here?
**A.** Its transformation efficiency is “around 70%”.

**Q.** What about the transformation efficiency (recalcitrant genotype) of the same compound?
**A.** The transformation efficiency was “around 18%”.
